Reference: US20240130988A1, “Use of stilbene compounds in the preparation of anti-tumor drugs” (Guangzhou AnHao Pharmaceutical Technology CO., LTD., priority 2022, published 2024)
Marks after values point to notes of the source that are not given here.

What was measured:
[1] = test system: nonfusion human umbilical vein endothelial cells (HUVEC); assay: TMT quantitative proteomics on nonfusion HUVEC; type: cell-based; conditions: 10 μM; for Differentially expressed proteins: more than 1.5 times or less than 0.67 times vs control; for Down-regulation / Up-regulation: number of proteins
Protocol: Nonfusion human umbilical vein endothelial cells (HUVEC) were used to simulate new tumor blood vessels, while confluent HUVECs were used to simulate normal blood vessels, to construct experimental models. Two different HUVECs were treated with the compound at the same dosage of 10 μM, to simulate the fusion cell state, and proteome samples were prepared. After preparation of peptide segments, the segments were labelled with TMT, and a quantitative proteomics analysis was carried out. The efficiency of TMT labeling was higher than 99.4%, and a total of 28372 peptide segments from 4934 proteins were characterized using a strict 1% FDR limit. Among them, 4909 quantifiable proteins were identified, indicating reliable quality. The nonfusion treatment groups and the fusion treatment groups were compared with their respective control groups, and the control group was used as a reference, with a significant difference of more than 1.5 times or less than 0.67 times as the protein score standard.
The total cell proteins of the samples in nonfusion cell groups and fusion cell groups were extracted separately, and 2 μg of protein samples were subjected to quality analysis, The quantitative proteomics experiments were carried out, and the protein concentration assay was performed by quantitative grayscale measurement.
Data analysis: The human protein database (Scientific name: Homo sapiens, 9606) was downloaded from UniProt, MaxQuant (v 1.5.5.1) search engine was used to search for the database. A total of 4934 proteins (4909 quantitative proteins) and 28372 peptide segments were identified by TMT quantitative proteomics experiments, with a labeling efficiency of more than 99%, and the complete digestion occupied 86.3%.

human lung cancer A549 = assay: Human lung cancer A549 transplanted tumors in nude mice; type: in vivo, BALB/C nude mice; conditions: A549, 400 mg/kg ig × 14; for inhibition in vivo at 400 mg/kg: Mus musculus, po, read-out: Tumor inhibitory rate %
Protocol: In this experiment, a human lung cancer A549 model transplanted into nude mice was selected to study the anti-tumor effect of test compounds. The mice were treated at a dosage of 400 mg/kg by gavage for 14 days, and the tumor inhibition rate against human lung cancer A549 was measured.
Preparation: The compound was prepared as the solution at the desired concentration with distilled water, prior to administration.
Animal strain: BALB/C nude mice (SPF grade), weight: 19-21 g, gender: male. Number of animals in each treatment group: 8; Number of animals in the control group: >12.
(§1) Lung cancer A549 tumor blocks with good growth were chosen and cut into uniform small pieces of 3 mm under sterile conditions, and then subcutaneously inoculated into the right armpit of each mouse with a cannula. These mice were divided into 9 groups, 8 mice for each treatment group, while more than 12 mice were included in the control group.
14 days after inoculation, the average volume of the tumor mass was about 100 mm^3. The animals were regrouped based on the size of the tumor, and the mice with tumors that were too large and too small were eliminated. For each group, the average volume of tumors was basically the same, and then the mice were treated with test compounds. The mice in the treatment groups were administered once a day by gavage for 14 successive days, at a dosage of 0.5 mL/20 g body weight; the mice in the control group were given the same volume of physiological saline. From the 14th day of inoculation, the long diameter a (mm) of the tumor, together with the perpendicular short diameter b (mm), was measured using a digital electronic caliper, twice a week. The calculation formula of tumor volume is: TV=ab^2/2, and the formula for calculating the relative tumor volume is RTV=Vt/Vo, wherein Vo denotes the tumor volume measured when the mice were divided into groups (i.e. d1), and Vt is the tumor volume from each measurement.
(§2) The result determination is based on the following formula: […]

[2] = test system: human gastric cancer MGC803; assay: Human gastric cancer MGC803 transplanted tumor in nude mice; type: in vivo, BALB/C nude mice; conditions: MGC803, 200 mg/kg ip × 14
Protocol: A human gastric cancer MGC803 model transplanted into nude mice was used in the experiment to investigate the anti-tumor effect of test compounds.
(§3) Preparation: The compound was prepared as the injection at the desired concentration with sterile normal saline, prior to administration.
Animal strain: BALB/C nude mice (SPF grade), weight: 19-21 g, gender: male.
Number of animals in each treatment group: 8; number of animals in the control group: >12.
as §1, with “The” for “Lung cancer A549”, “blocks of human gastric cancer MGC803” for “blocks”, “were” for “were chosen and”
14 days after inoculation, the average volume of the tumor block was about 100 mm^3. The animals were regrouped based on the size of the tumor, and the animals with tumors that were too large and too small were sifted out. For each group, the average volume of tumors was basically the same, and then the mice were initially treated with test compounds. The mice were intraperitoneally injected once a day for 14 days, at a dosage of 0.2 mL/20 g body weight. From the 14th day of inoculation, the long diameter a (mm) of the tumor, together with the perpendicular short diameter b (mm), was measured using a digital electronic caliper, twice a week. The calculation formula of tumor volume is: TV=ab^2/2, and the formula for calculating the relative tumor volume is RTV=Vt/Vo, wherein Vo denotes the tumor volume measured when the mice were divided into groups(i.e. d1), and Vt is the tumor volume from each measurement.
as §2

[3] = test system: human renal cell carcinoma AGHN; assay: Human renal cell carcinoma AGHN transplanted tumor in nude mice; type: in vivo, BALB/C nude mice
Protocol: A human renal cell carcinoma AGHN model transplanted into nude mice was used in the experiment to investigate the anti-tumor effect of test compounds. […] AGHN was measured.
as §3
Animal strain: BALB/C, nude mice (SPF grade), weight: 19-21 g, gender: male. Number of animals in each treatment group: 8; number of animals in the control group: >12.
as §1, with “The” for “Lung cancer A549”, “blocks of human renal cell carcinoma AGHN” for “blocks”, “were” for “were chosen and”, “The” for “These”, “>12” for “more than 12”
14 days after inoculation, the average volume of the tumor block was about 100 mm^3, The animals were regrouped based on the size of the tumor, and the animals with tumors that were too large and too small were sifted out. For each group, the average volume of tumors was basically the same, and then the mice were initially treated with test compounds. The mice were intraperitoneally injected once a day for 14 days, at a dosage of 0.2 mL/20 g body weight; the mice in the control group were given the same volume of sterile normal saline. From the 14th day of inoculation, the long diameter a (mm) of the tumor, together with the perpendicular short diameter b (mm), was measured using a digital electronic caliper, twice a week. The calculation formula of tumor volume is: TV=ab^2/2, and the formula for calculating the relative tumor volume is: RTV=Vt/Vo, wherein Vo denotes the tumor volume measured when the mice were divided into groups (i.e. d1), and Vt denotes the tumor volume from each measurement.
as §2

COc1cc(/C=C(/C(=O)O)c2cc(OC)c(OC)c(OC)c2)cc(OC)c1 [Compound 3, (E)-3-(3,5-dimethoxyphenyl)-2-(3,4,5-trimethoxyphenyl)acrylic acid]
Differentially expressed proteins [1]: 318
Down-regulation [1]: 312
Up-regulation [1]: 6
RTV (d 22) (human lung cancer A549): 4.52 ± 0.76
inhibition in vivo at 400 mg/kg (human lung cancer A549): 61.5%
RTV (d 18) [2]: 4.79 ± 0.54
Tumor inhibitory rate % [2]: 58.42^## %
RTV (d 18) ([3]; 200 mg/kg ip × 14): 5.47 ± 0.82
Tumor inhibitory rate % ([3]; 200 mg/kg ip × 14): 60.33^# %

COc1cc(/C(=C\c2cc(O)c(OC)c(O)c2)C(=O)O)cc(OC)c1OC [Compound 11, (E)-3-(3,5-dihydroxy-4-methoxyphenyl)-2-(3,4,5-trimethoxyphenyl)acrylic acid]
Differentially expressed proteins [1]: 317
Down-regulation [1]: 306
Up-regulation [1]: 11
RTV (d 22) (human lung cancer A549): 4.07 ± 0.51
inhibition in vivo at 400 mg/kg (human lung cancer A549): 65.4%
RTV (d 18) [2]: 4.72 ± 0.61
Tumor inhibitory rate % [2]: 59.03^## %

COc1ccc(/C=C(/C(=O)O)c2cc(OC)c(OC)c(OC)c2)c(O)c1O [Compound 1, (E)-3-(2,3-dihydroxy-4-methoxyphenyl)-2-(3,4,5-trimethoxylphenyl)acrylic acid]
Differentially expressed proteins [1]: 323
Down-regulation [1]: 296
Up-regulation [1]: 7
RTV (d 22) (human lung cancer A549): 4.27 ± 0.48
inhibition in vivo at 400 mg/kg (human lung cancer A549): 63.6%
RTV (d 18) [2]: 5.87 ± 0.63
Tumor inhibitory rate % [2]: 49.05^## %
RTV (d 18) ([3]; 200 mg/kg ip × 14): 6.31 ± 0.91
Tumor inhibitory rate % ([3]; 200 mg/kg ip × 14): 54.24^## %

COc1ccc(/C=C(/C(=O)O)c2cc(OC)c(OC)c(OC)c2)c(F)c1O [Compound 9, (E)-3-(2-fluoro-3-hydroxy-4-methoxyphenyl)-2-(3,4,5-trimethoxyphenyl)acrylic acid]
Differentially expressed proteins [1]: 296
Down-regulation [1]: 291
Up-regulation [1]: 5
RTV (d 18) ([3]; 200 mg/kg ip × 14): 5.12 ± 0.77
Tumor inhibitory rate % ([3]; 200 mg/kg ip × 14): 62.87^# %

COc1cc(/C(=C\c2cc(O)c(OC)c(F)c2)C(=O)O)cc(OC)c1OC [Compound 8, (E)-3-(5-fluoro-3-hydroxy-4-methoxyphenyl)-2-(3,4,5-trimethoxyphenyl)acrylic acid]
Differentially expressed proteins [1]: 317
Down-regulation [1]: 311
Up-regulation [1]: 6
RTV (d 22) (human lung cancer A549): 4.22 ± 0.75
inhibition in vivo at 400 mg/kg (human lung cancer A549): 64.1%
RTV (d 18) [2]: 4.59 ± 0.47
Tumor inhibitory rate % [2]: 60.16^## %
RTV (d 18) ([3]; 200 mg/kg ip × 14): 6.22 ± 0.63
Tumor inhibitory rate % ([3]; 200 mg/kg ip × 14): 54.89^## %

COc1ccc(/C=C(/C(=O)O)c2cc(OC)c(OC)c(OC)c2)cc1F [Compound 4, (E)-3-(3-fluoro-4-methoxyphenyl)-2-(3,4,5-trimethoxyphenyl)acrylic acid]
Differentially expressed proteins [1]: 307
Down-regulation [1]: 302
Up-regulation [1]: 5
RTV (d 22) (human lung cancer A549): 5.23 ± 1.43
inhibition in vivo at 400 mg/kg (human lung cancer A549): 55.5%
RTV (d 18) ([3]; 200 mg/kg ip × 14): 4.31 ± 0.58
Tumor inhibitory rate % ([3]; 200 mg/kg ip × 14, 200 mg/kg): 68.75%
Tumor inhibitory rate % ([3]; 200 mg/kg ip × 14, listed as compound 4, 200 mg/kg): best inhibitory effect on renal cell carcinoma

COc1ccc(/C=C(/C(=O)O)c2cc(OC)c(OC)c(OC)c2)cc1O [Compound 6, (E)-3-(3-hydroxy-4-methoxyphenyl)-2-(3,4,5-trimethoxyphenyl)acrylic acid]
Differentially expressed proteins [1]: 312
Down-regulation [1]: 307
Up-regulation [1]: 5
RTV (d 22) (human lung cancer A549): 2.51 ± 0.94
Tumor inhibitory rate % (human lung cancer A549): best inhibitory effect on lung cancer
inhibition in vivo at 400 mg/kg (human lung cancer A549): 78.6%
RTV (d 18) [2]: 3.43 ± 0.51
Tumor inhibitory rate % [2]: 70.23%
Tumor inhibitory rate % ([2]; listed as compound 6): best inhibitory effect on gastric cancer
RTV (d 18) ([3]; 200 mg/kg ip × 14): 6.53 ± 0.85
Tumor inhibitory rate % ([3]; 200 mg/kg ip × 14): 52.64^## %

COc1cc(/C=C(/C(=O)[O-])c2cc(OC)c(OC)c(OC)c2)cc(OC)c1F.[K+] [Compound 10]
Differentially expressed proteins [1]: 315
Down-regulation [1]: 309
Up-regulation [1]: 6
RTV (d 18) [2]: 4.21 ± 0.58
Tumor inhibitory rate % [2]: 63.45^# %
